Biological target: T1, human β3-AR (Homo sapiens, UniProt P13945)
T1 construct: expressed in transfected cells; host or cells: CHO (Chinese hamster ovary) cells, stably transfected
Assay: cAMP functional agonist assay (LANCE TR-FRET) in CHO cells expressing cloned human β3-AR
Format: cell-based
Conditions: for EC50: CHO cells stably expressing cloned human β3-adrenoceptor, cAMP release, read-out: Human β3-AR Agonism EC50; for Human β3-AR Agonist Activity (%): percent maximum activation relative to isoproterenol; for Fold drop in potency vs. 2-chloropyridine analog: EC50 of comparative example divided by EC50 of corresponding 2-chloropyridine compound
Protocol: The ability of compounds to activate the human β3-AR receptor was measured using a CHO cell line stably expressing the cloned human β1-, β2-, and β3-adrenoceptors (β-AR). […] To quantify the amount of cAMP released following β-AR activation, the LANCE cAMP kit (Perking Elmer), a time-resolved fluorescence resonance energy transfer immunoassay, was used. Compounds were serially diluted in DMSO and an aliquot added to either 384-well or 96-well micro titer plates in assay buffer (5 mM HEPES, 0.1% BSA in Hank's Balanced Salt Solution). […] Following 30 min incubation at room temperature, the cells were lysed by the addition of LANCE detection buffer which contained a europium-labeled cAMP tracer. Fluorescence was measured following one hour incubation at room temperature using a Perking Elmer Envision plate reader, exciting at 340 nm and measuring emission at 615 nm and 665 nm. For each assay, a cAMP standard curve was included and used to convert fluorescence readings directly to cAMP amounts. The values were then normalized to isoproterenol, a known full agonist of β-AR, which was titrated in every assay and the EC50 determined using a custom in-house data analysis package. Along with EC50, the percent maximum activation relative to isoproterenol is reported.
The cAMP production is measured using a homogenous time-resolved fluorescence resonance energy transfer immunoassay (LANCE™, Perkin Elmer) according to the manufacture's instructions. Chinese hamster ovary (CHO) cells, stably transfected with the cloned β-adrenergic receptor (β1, β2 or β3) are harvested after 3 days of subculturing. Harvesting of cells is done with Enzyme-free Dissociation Media (Specialty Media). Cells are then counted and resuspended in assay buffer (Hank's Balanced salt solution supplemented with 5 mM HEPES, […]) containing a phosphodiesterase inhibitor (IBMX, 0.6 mM). The reaction is initiated by mixing 6,000 cells in 6 μL with 6 μL Alexa Fluor labeled cAMP antibody (LANCE™ kit) which is then added to an assay well containing 12 μL of compound (diluted in assay buffer to 2× final concentration). The reaction proceeds for 30 minutes at RT and is terminated by the addition of 24 ul detection buffer (LANCE™ kit). The assay plate is then incubated for 1 h at RT and time-resolved fluorescence measured on a Perkin Elmer Envision reader or equivalent. The unknown cAMP level is determined by comparing fluorescence levels to a cAMP standard curve.
The non-selective, full agonist β-adrenergic ligand isoproterenol is used at all three receptors to determine maximal stimulation. […] Data are analyzed using Microsoft Excel and Graphpad Prism or an internally developed data analysis software package. […]

T1 sequence (P13945 whole entry): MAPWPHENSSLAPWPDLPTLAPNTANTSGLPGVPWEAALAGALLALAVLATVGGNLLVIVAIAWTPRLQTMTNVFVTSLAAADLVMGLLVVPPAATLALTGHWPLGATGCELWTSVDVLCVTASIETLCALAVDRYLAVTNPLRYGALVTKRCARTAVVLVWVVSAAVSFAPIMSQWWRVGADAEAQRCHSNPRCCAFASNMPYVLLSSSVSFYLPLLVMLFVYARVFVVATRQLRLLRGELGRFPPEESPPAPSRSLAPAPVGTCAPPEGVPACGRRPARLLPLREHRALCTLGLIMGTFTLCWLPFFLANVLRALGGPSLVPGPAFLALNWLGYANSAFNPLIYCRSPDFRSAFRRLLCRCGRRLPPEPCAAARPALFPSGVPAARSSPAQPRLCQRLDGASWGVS

EC50 | Human β3-AR Agonist Activity (%) | Fold drop in potency vs. 2-chloropyridine analog | SMILES
5 nM | 108% |  | CN(Cc1cccc(=O)[nH]1)C(=O)c1ccc(C[C@@H]2CC[C@H]([C@H](O)c3ccc(Cl)nc3)N2)cc1 [Example 20-A, 4-(((2S,5R)-5-((R)-(6-chloropyridin-3-yl)(hydroxy)methyl)pyrrolidin-2-yl)methyl)-N-methyl-N-((6-oxo-1,6-dihydropyridin-2-yl)methyl)benzamide]
9 nM | 103% | 2.1 fold | CN(Cc1cccc(=O)[nH]1)C(=O)c1ccc(C[C@@H]2CC[C@H]([C@H](O)c3ccccc3)N2)cc1 [Example 20-B, 4-(((2S,5R)-5-((R)-hydroxy(phenyl)methyl)pyrrolidin-2-yl)methyl)-N-methyl-N-((6-oxo-1,6-dihydropyridin-2-yl)methyl)benzamide]
86 nM | 72% | 18.9 fold | CN(Cc1cccc(=O)[nH]1)C(=O)c1ccc(C[C@@H]2CC[C@H]([C@H](O)c3ccc(OC(F)F)cc3)N2)cc1 [Example 20-E, 4-(((2S,5R)-5-((R)-(4-(difluoromethoxy)phenyl)(hydroxy)methyl)pyrrolidin-2-yl)methyl)-N-methyl-N-((6-oxo-1,6-dihydropyridin-2-yl)methyl)benzamide]
6 nM | 99% | 4.5 fold | CN(Cc1cccc(=O)[nH]1)C(=O)c1ccc(C[C@@H]2CC[C@H]([C@H](O)c3ccc(Cl)cc3)N2)cc1 [Example 20-G]
4 nM | 102% |  | CN(Cc1cccnc1)C(=O)c1ccc(C[C@@H]2CC[C@H]([C@H](O)c3ccc(Cl)nc3)N2)cc1 [Example 21-A, 4-(((2S,5R)-5-((R)-(6-chloropyridin-3-yl)(hydroxy)methyl)pyrrolidin-2-yl)methyl)-N-methyl-N-(pyridin-3-ylmethyl)benzamide]
10 nM | 100% | 2.3 fold | CN(Cc1cccnc1)C(=O)c1ccc(C[C@@H]2CC[C@H]([C@H](O)c3cccc(F)c3)N2)cc1 [Example 21-C, 4-(((2S,5R)-5-((R)-(3-fluorophenyl)(hydroxy)methyl)pyrrolidin-2-yl)methyl)-N-methyl-N-(pyridin-3-ylmethyl)benzamide]
12 nM | 94% | 2.9 fold | CN(Cc1cccnc1)C(=O)c1ccc(C[C@@H]2CC[C@H]([C@H](O)c3ccc(F)cc3)N2)cc1 [Example 21-F, 4-(((2S,5R)-5-((R)-(4-fluorophenyl)(hydroxy)methyl)pyrrolidin-2-yl)methyl)-N-methyl-N-(pyridin-3-ylmethyl)benzamide]

The next lines start with the compound.

SMILES | EC50 | Human β3-AR Agonist Activity (%) | Fold drop in potency vs. 2-chloropyridine analog
COc1c(CN(C)C(=O)c2ccc(C[C@@H]3CC[C@H]([C@H](O)c4ccc(Cl)nc4)N3)cc2)n[nH]c1C [Example 16-A, 4-(((2S,5R)-5-((R)-(6-chloropyridin-3-yl)(hydroxy)methyl)pyrrolidin-2-yl)methyl)-N-((4-methoxy-5-methyl-1H-pyrazol-3-yl)methyl)-N-methylbenzamide] | 2 nM | 102% | 
COc1c(C)n[nH]c1CN(C)C(=O)c1ccc(C[C@@H]2CC[C@H]([C@H](O)c3ccccc3)N2)cc1 [Example 16-B, 4-(((2S,5R)-5-((R)-hydroxy(phenyl)methyl)pyrrolidin-2-yl)methyl)-N-((4-methoxy-5-methyl-1H-pyrazol-3-yl)methyl)-N-methylbenzamide] | 10 nM | 101% | 6.2 fold
Cc1[nH]nc(CN(C)C(=O)c2ccc(C[C@@H]3CC[C@H]([C@H](O)c4ccc(Cl)nc4)N3)cc2)c1Cl [Example 17-A, N-((4-chloro-5-methyl-1H-pyrazol-3-yl)methyl)-4-(((2S,5R)-5-((R)-(6-chloropyridin-3-yl)(hydroxy)methyl)pyrrolidin-2-yl)methyl)-N-methylbenzamide] | 4 nM | 94% | 
Cc1n[nH]c(CN(C)C(=O)c2ccc(C[C@@H]3CC[C@H]([C@H](O)c4ccccc4)N3)cc2)c1Cl [Example 17-B, N-((4-chloro-5-methyl-1H-pyrazol-3-yl)methyl)-4-(((2S,5R)-5-((R)-hydroxy(phenyl)methyl)pyrrolidin-2-yl)methyl)-N-methylbenzamide] | 17 nM | 112% | 4.5 fold
C[C@H](c1nn(C)c(=O)o1)N(C)C(=O)c1ccc(C[C@@H]2CC[C@H]([C@H](O)c3ccc(Cl)nc3)N2)cc1 [Example 18-A, 4-(((2S,5R)-5-((R)-(6-chloropyridin-3-yl)(hydroxy)methyl)pyrrolidin-2-yl)methyl)-N-methyl-N—((R)-1-(4-methyl-5-oxo-4,5-dihydro-1,3,4-oxadiazol-2-yl)ethyl)benzamide] | 8 nM | 101% | 
C[C@H](c1nn(C)c(=O)o1)N(C)C(=O)c1ccc(C[C@@H]2CC[C@H]([C@H](O)c3ccccc3)N2)cc1 [Example 18-B, 4-(((2S,5R)-5-((R)-hydroxy(phenyl)methyl)pyrrolidin-2-yl)methyl)-N-methyl-N—((R)-1-(4-methyl-5-oxo-4,5-dihydro-1,3,4-oxadiazol-2-yl)ethyl)benzamide] | 68 nM | 105% | 8.6 fold
C[C@H](c1nn(C)c(=O)o1)N(C)C(=O)c1ccc(C[C@@H]2CC[C@H]([C@H](O)c3ccc(Cl)cc3)N2)cc1 [Example 18-G, 4-(((2S,5R)-5-((R)-(4-chlorophenyl)(hydroxy)methyl)pyrrolidin-2-yl)methyl)-N-methyl-N—((R)-1-(4-methyl-5-oxo-4,5-dihydro-1,3,4-oxadiazol-2-yl)ethyl)benzamide] | 13 nM | 101% | 1.7 fold
CC(C)[C@H](c1nn(C)c(=O)o1)N(C)C(=O)c1ccc(C[C@@H]2CC[C@H]([C@H](O)c3ccc(Cl)nc3)N2)cc1 [Example 19-A, 4-(((2S,5R)-5-((R)-(6-chloropyridin-3-yl)(hydroxy)methyl)pyrrolidin-2-yl)methyl)-N-methyl-N—((R)-2-methyl-1-(4-methyl-5-oxo-4,5-dihydro-1,3,4-oxadiazol-2-yl)propyl) benzamide] | 5 nM | 111% | 
CC(C)[C@H](c1nn(C)c(=O)o1)N(C)C(=O)c1ccc(C[C@@H]2CC[C@H]([C@H](O)c3ccccc3)N2)cc1 [Example 19-B, 4-(((2S,5R)-5-((R)-hydroxy(phenyl)methyl)pyrrolidin-2-yl)methyl)-N-methyl-N—((R)-2-methyl-1-(4-methyl-5-oxo-4,5-dihydro-1,3,4-oxadiazol-2-yl)propyl)benzamide] | 32 nM | 115% | 5.8 fold
CN(Cc1cccnc1)C(=O)c1ccc(C[C@@H]2CC[C@H]([C@H](O)c3ccccc3)N2)cc1 [Example 21-B, 4-(((2S,5R)-5-((R)-hydroxy(phenyl)methyl)pyrrolidin-2-yl)methyl)-N-methyl-N-(pyridin-3-ylmethyl)benzamide] | 41 nM | 86% | 9.7 fold
CN(Cc1cccnc1)C(=O)c1ccc(C[C@@H]2CC[C@H]([C@H](O)c3cccc(Cl)c3)N2)cc1 [Example 21-D, 4-(((2S,5R)-5-((R)-(3-chlorophenyl)(hydroxy)methyl)pyrrolidin-2-yl)methyl)-N-methyl-N-(pyridin-3-ylmethyl)benzamide] | 120 nM | 97% | 28.2 fold
CN(Cc1cccnc1)C(=O)c1ccc(C[C@@H]2CC[C@H]([C@H](O)c3ccc(Cl)cc3)N2)cc1 [Example 21-G, 4-(((2S,5R)-5-((R)-(4-chlorophenyl)(hydroxy)methyl)pyrrolidin-2-yl)methyl)-N-methyl-N-(pyridin-3-ylmethyl)benzamide] | 6 nM | 88% | 1.3 fold

Reference: patent US20160235727A1, “NOVEL PYRROLIDINE DERIVED BETA 3 ADRENERGIC RECEPTOR AGONISTS” (Merck Sharp & Dohme Corp., priority 2013, published 2016)
